Measurements taken from patent US10618900B2, “5-aromatic alkynyl substituted benzamide compound and preparation method, pharmaceutical composition, and use thereof” (SHANGHAI INSTITUTE OF MATERIA MEDICA, CHINESE ACADEMY OF …, priority 2015, dated 2020).

Columns and labels:
mGluR5 = mGluR5 (Homo sapiens (Human), UniProt P41594); test: In vitro activity test for mGluR5, HDB Fluo-8 calcium fluorescence detection (FLIPR); assay type: cell-based; conditions: HEK293/mGluR5 cell line
From the text: Experimental instrument: FLIPR Tetra real-time fluorescence imaging analysis system
Experimental method: HDB Fluo-8 calcium fluorescence detection method
Experimental principle: HDB Fluo-8 calcium ion fluorescence detection method is a fast, simple and reliable fluorescence detection method of intracellular calcium concentration changes. The Fluo 8-AM fluorescent dye is an […] derivative of Fluo 8 which can easily penetrate the cell membrane into the cell by culture. The fluorescent dye into the cell will be hydrolyzed by intracellular esterase, the resulting Fluo 8 cannot easily pass through the lipid bimolecular membrane as a polar molecule, and will retain in the cell, and combine with calcium (Ca^2+) to produce fluoresces.
Cells expressing GPCR receptor protein (mGluR5) were first calibrated with a calcium ion sensitive fluorescent probe and then stimulated with the compound. After stimulation, the activation of the receptor lead to the calcium ion mobilization, and the fluorescent probe captures the calcium ion to induce the fluorescence signal. The signal can be read by a fluorescent plate reader. The fluorescent plate reader contains a sampling head for compound addition, thus enabling the change of the fluorescence value of the compound be read in real time. […]

ICR mice = test: Mouse forced swimming experiment; assay type: in vivo; conditions: later 4 min of 6 min
Procedure: Experimental principle: The principle of Mouse Forced Swimming Test (FST) is to allow the mouse to swim in a limited space from which it can not escape, thus inducing animal to non-movement state which reflects the animal's desperate behavior.
Experimental animals: ICR mice, 20-28 g, both male and female
Sample treatment: The test compounds were ground with 1% CMC (sodium carboxymethyl cellulose) aqueous solution to prepare a homogeneous solution. In vivo dose was 5 mg/kg, 10 mg/kg and 20 mg/kg, the compound was oral administered at 0.1 ml/10 g volume/body weight. Positive control drugs (amitriptyline and fluoxetine) were dissolved with 0.9% saline, in vivo dose was 10 mg/kg, administered by intraperitoneal injection at 0.1 ml/10 g volume/body weight. (Note: the mice were fasted for 8 h and drinked water ad libitum before the compound was given.)
Experimental Methods: mice were grouped randomly. […] On the second day of the test, the mice were orally administered the compound. After 1 hour (0.5 hours after intraperitoneal injection), the mice were then put in water to record the immobility time in the later 4 min of 6 min.

Chain of mGluR5 (P41594 21-1212): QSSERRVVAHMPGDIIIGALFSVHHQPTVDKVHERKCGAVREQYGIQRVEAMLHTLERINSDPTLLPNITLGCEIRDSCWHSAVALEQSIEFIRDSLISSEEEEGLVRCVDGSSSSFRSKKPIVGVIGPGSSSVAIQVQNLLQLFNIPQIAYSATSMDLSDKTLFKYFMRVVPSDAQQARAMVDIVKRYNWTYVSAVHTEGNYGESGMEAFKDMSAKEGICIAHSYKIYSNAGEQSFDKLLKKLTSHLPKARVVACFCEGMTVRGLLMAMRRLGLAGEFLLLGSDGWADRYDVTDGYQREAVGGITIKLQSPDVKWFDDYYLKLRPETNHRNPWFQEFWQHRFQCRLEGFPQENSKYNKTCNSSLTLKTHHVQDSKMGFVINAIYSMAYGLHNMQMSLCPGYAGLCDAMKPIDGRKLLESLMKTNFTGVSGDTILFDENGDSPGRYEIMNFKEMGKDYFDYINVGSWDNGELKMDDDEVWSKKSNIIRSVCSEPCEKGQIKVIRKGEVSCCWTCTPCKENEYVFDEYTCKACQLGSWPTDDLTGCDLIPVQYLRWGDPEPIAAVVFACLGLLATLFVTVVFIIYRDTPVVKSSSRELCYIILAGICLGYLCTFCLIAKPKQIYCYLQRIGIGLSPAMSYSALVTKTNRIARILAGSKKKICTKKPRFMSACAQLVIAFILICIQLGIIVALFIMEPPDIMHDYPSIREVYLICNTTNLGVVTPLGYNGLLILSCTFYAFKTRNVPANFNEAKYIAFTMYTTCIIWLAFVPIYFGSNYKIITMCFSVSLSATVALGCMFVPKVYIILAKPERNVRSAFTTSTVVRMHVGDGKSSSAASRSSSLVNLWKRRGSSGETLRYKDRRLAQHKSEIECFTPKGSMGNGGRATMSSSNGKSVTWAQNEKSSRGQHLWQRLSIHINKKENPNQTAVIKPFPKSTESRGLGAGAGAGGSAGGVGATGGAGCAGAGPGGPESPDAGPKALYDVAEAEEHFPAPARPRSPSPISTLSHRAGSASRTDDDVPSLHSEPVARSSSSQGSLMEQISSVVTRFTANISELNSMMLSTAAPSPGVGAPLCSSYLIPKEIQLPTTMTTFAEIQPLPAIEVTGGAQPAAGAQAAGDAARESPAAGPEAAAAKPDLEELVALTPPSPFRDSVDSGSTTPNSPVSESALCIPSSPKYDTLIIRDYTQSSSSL

SMILES: Cc1nc(C#Cc2ccc(F)c(C(=O)Nc3cccnc3)c2)cs1 [ZD043]
- IC50 (mGluR5): 5.6 nM
- immobility time (%) Mean ± SEM (ICR mice; 5 mg/kg oral): reduced
- immobility time (%) Mean ± SEM (ICR mice; 5 mg/kg oral, listed as D043): 74.97 ± 18.79%
- immobility time (%) Mean ± SEM (ICR mice; 10 mg/kg oral): reduced
- immobility time (%) Mean ± SEM (ICR mice; 10 mg/kg oral, listed as D043): 66.01 ± 21.08%
- immobility time (%) Mean ± SEM (ICR mice; 20 mg/kg oral): reduced
- immobility time (%) Mean ± SEM (ICR mice; 20 mg/kg oral, listed as D043): 46.50 ± 13.03%
